Experimental data from patent publication US10722484B2, “Methods of cancer treatment” (K-Gen, Inc., priority 2016, dated 2020).
Like-named read-outs stand apart in the source and are kept apart here. One block for each molecule: values may come before it.

Columns and labels:
[1] = tested on: HL-60 human promyelocytic leukemia cells; assay: Combination viability/proliferation assays
Description: Briefly, cells at density of 1,000-10,000 cells/well in 96-well plates or 200-1600 cells/well in 384-well plates were seeded and incubated at 37° C. for 24 hours before addition of compounds. A series of 9 different concentrations of compound stocks (500×) were prepared by 3-fold serial dilutions in DMSO. […] After 96 hours of incubation, 35 μL or 50 μL of CellTiter Glo reagent (Promega) was added to each well and luminescence was measured after 10 minutes using EnVision (PerkinElmer). Luminescence from cells treated with DMSO alone was set as Max and % of inhibition was calculated as follows: Inhibition %=(Max-Sample value)/Max*100. Data were analyzed using XLfit software (ID Business Solutions Ltd.) or GraphPad software and IC50, relative IC50, and % of top inhibition were calculated.
The top concentration for the tested PKC activator compound was set at roughly the IC50 when the same testing compound was used as a single agent assayed in the same cell line. The next dose was either 3-fold or 10-fold dilution from the top concentration.

[2] = tested on: A549 lung cancer cell line; assay: Combination viability/proliferation assays (384-well IC50 ratio, 96-well MacSynergy II); assay type: cell-based; details: for Combination in A549: K101A (synergism/antagonism): agent assayed in combination with K101A; for Combination in A549: K101A (synergism/antagonism) / Combination in A549: K102 (synergism/antagonism): * 2-3 concentrations, # full concentration ranges; for Combination in A549: K102 (synergism/antagonism): agent assayed in combination with K102; for Combination in A549: K101A (synergism/antagonism) / Combination in A549: K102 (synergism/antagonism) / Ratio ([…] DMSO IC50/combination IC50) / Combination in A549: K101E (synergism/antagonism): A549; for effect in combination with the PKC activator compounds in inhibiting the growth of A549 cells: PKC activator compounds (K101A, K101E, K102); for Combination in A549: K101E (synergism/antagonism): agent assayed in combination with K101E
Description: (§1) A 96-well MacSynergy II format for combination test was also used. […] The analysis was done with the SQRT(Data) scale and the four parameter Hill curve was fitted using XLfit5.1 (the MacSynergy II Excel Spreadsheet) for the inhibition data. Synergy (positive number) or Antagonism (negative number) volumes were calculated. […] Three-dimensional MacSynergy II graphs were generated where positive values indicated synergism and negative values indicated antagonism.

Panc2.13 = assay: Combination viability/proliferation assays; assay type: cell-based; details: for Combination effect, Panc2.13: K101A: agent in combination with K101A; for effect in combination with K101A: Panc2.13, K101A at 1 μM or at 0.67 μM
Description: as §1

A549 = assay: Proliferation assay (CellTiter Glo); assay type: cell-based; details: 96 hours
Description: (§2) The dose range for most compounds was 4.6 nM-30 μM. The dose ranges for some compounds were adjusted downward to 0.46 nM-3 μM or 0.08 nM-0.5 μM or 0.03 nM-0.2 μM. […] The results are shown in Tables 3-6 for pancreatic cancer, lung cancer, colon/gastric cancer, and leukemia.

AGS = assay: Proliferation assay (CellTiter Glo); assay type: cell-based; details: 96 hours
Description: as §2

Capan-1 = assay: Proliferation assay (CellTiter Glo); assay type: cell-based; details: 96 hours
Description: as §2

H358 = assay: Proliferation assay (CellTiter Glo); assay type: cell-based; details: HE58, 96 hours
Description: as §2

H441 = assay: Proliferation assay (CellTiter Glo); assay type: cell-based; details: 96 hours
Description: as §2

H727 = assay: Proliferation assay (CellTiter Glo); assay type: cell-based; details: 96 hours
Description: as §2

HCT116 = assay: Proliferation assay (CellTiter Glo); assay type: cell-based; details: 96 hours
Description: as §2

KP-4 = assay: Proliferation assay (CellTiter Glo); assay type: cell-based; details: 96 hours
Description: as §2

LS180 = assay: Proliferation assay (CellTiter Glo); assay type: cell-based; details: 96 hours
Description: as §2

SW620 = assay: Proliferation assay (CellTiter Glo); assay type: cell-based; details: 96 hours
Description: as §2

MiaPaCa-2 = assay: Proliferation assay (CellTiter Glo); assay type: cell-based; details: 96 hours
HL60 = assay: Proliferation assay (CellTiter Glo); assay type: cell-based, human; details: 96 hours
Description: as §2

THP1 = assay: Proliferation assay (CellTiter Glo); assay type: cell-based, human; details: 96 hours
Description: as §2

BxPC-3 = assay: Proliferation assay (CellTiter Glo); assay type: cell-based; details: BxPC-3 (RAS WT); 96 hours
Description: as §2
(§3) Other cancer cell lines having wild-type K-RAS status and K-RAS mutation at G12 were also screened using the PKC activator compounds. […] K104 was tested in a range of 0.03 nM-0.2 μM. […] The dose ranges were adjusted downward to 0.46 nM-3 μM for K102 and 0.08 nM-0.5 μM for K103 for some cell lines. The results of the screening of cancer cells lines with wild-type K-RAS status and K-RAS mutations at the G12 positions are presented in Table 7.

Colo205 = assay: Proliferation assay (CellTiter Glo); assay type: cell-based; details: Colo205 (RAS WT); 96 hours
Description: as §2, §3

H1915 = assay: Proliferation assay (CellTiter Glo); assay type: cell-based; details: H1915 (RAS WT); 96 hours
Description: as §2, §3

H838 = assay: Proliferation assay (CellTiter Glo); assay type: cell-based; details: H838 (RAS WT); 96 hours
Description: as §2, §3

HT29 = assay: Proliferation assay (CellTiter Glo); assay type: cell-based; details: HT29 (RAS WT); 96 hours
Description: as §2, §3

[3] = in combination with 0.0002 μM K102, NC: no change
[4] = in combination with 0.002 μM K102, NC: no change
[5] = in combination with 0.005 μM K101A, NC: no change
[6] = in combination with 0.02 μM K102, NC: no change
[7] = in combination with 0.05 μM K101A, NC: no change
[8] = in combination with 0.5 μM K101A, ratio >2 synergistic, <0.5 antagonistic, NC: no change

SMILES: Cc1nc(Nc2ncc(C(=O)Nc3c(C)cccc3Cl)s2)cc(N2CCN(CCO)CC2)n1 [Dasatinib]
- increase of potency in inhibiting growth ([1]; combined with K101A (0.3 μM) or K102 (0.005 μM)): more than 10 fold

SMILES: O=C(CCCCCCC(=O)Nc1ccccc1)NO [SAHA, suberoylanilide hydroxamic acid]
- Combination in A549: K101A (synergism/antagonism) [2]: Antagonism (minor)
- Combination in A549: K102 (synergism/antagonism) [2]: Antagonism (minor)
- effect in combination with K101A and K102 [1]: moderate or minor synergistic/additive effect

SMILES: O=C(c1cc(Cc2n[nH]c(=O)c3ccccc23)ccc1F)N1CCN(C(=O)C2CC2)CC1 [Olaparib]
- Ratio ([…] DMSO IC50/combination IC50) [2, 3]: 0.78
- Ratio ([…] DMSO IC50/combination IC50) [2, 4]: 1.43
- Ratio ([…] DMSO IC50/combination IC50) [2, 5]: 0.91
- Ratio ([…] DMSO IC50/combination IC50) [2, 6]: 2.74
- Ratio ([…] DMSO IC50/combination IC50) ([2]; in combination with 0.03 μM K101E (footnote, Olaparib)): 1.15
- Ratio ([…] DMSO IC50/combination IC50) [2, 7]: 1.38
- Ratio ([…] DMSO IC50/combination IC50) ([2]; in combination with 0.3 μM K101E (footnote, Olaparib)): 1.30
- Ratio ([…] DMSO IC50/combination IC50) [2, 8]: 2.76
- Ratio ([…] DMSO IC50/combination IC50) ([2]; in combination with 3 μM K101E (footnote, Olaparib)): 1.97
- effect in combination with the PKC activator compounds in inhibiting the growth of A549 cells [2]: synergistic effect
- Combination in A549: K101A (synergism/antagonism) [2]: Synergism
- Combination in A549: K101E (synergism/antagonism) [2]: None
- Combination in A549: K102 (synergism/antagonism) [2]: Synergism
- effect in combination with K101A (Panc2.13): strong synergy
- Combination effect, Panc2.13: K101A (Panc2.13): Synergism

SMILES: CC(=O)OC12CC(C)C3(O)C(C4OC4(CO)CC4(O)C(O)C(C)=CC43)C1C2(C)C (centres unmarked) [Compound K101D]
- EC50 (A549; A549 (K-RAS: G12S), absolute EC50, read-out: Ab EC50): > 30 µM
- Top Inhibition % (A549; A549, % of top inhibition): 44.4%
- EC50 (A549; A549, relative EC50, read-out: Re EC50): 7.72 µM
- EC50 (AGS; AGS (gastric, K-RAS: G12D), absolute EC50, read-out: Ab EC50): > 30 µM
- Top Inhibition % (AGS; AGS, % of top inhibition): 13.5%
- EC50 (Capan-1; Capan-1 (K-RAS: G12V), absolute EC50, read-out: Ab EC50): > 30 µM
- Top Inhibition % (Capan-1; Capan-1, % of top inhibition): 22.3%
- EC50 (Capan-1; Capan-1, relative EC50, read-out: Re EC50): 8.66 µM
- Top Inhibition % (H358; % of top inhibition): 23.0%
- EC50 (H358; absolute EC50, read-out: Ab EC50): > 30 µM
- EC50 (H358; relative EC50, read-out: Re EC50): 11 µM
- EC50 (H441; H441 (K-RAS: G12V), absolute EC50, read-out: Ab EC50): > 30 µM
- Top Inhibition % (H441; H441, % of top inhibition): 11.6%
- EC50 (H727; H727 (K-RAS: G12V), absolute EC50, read-out: Ab EC50): > 30 µM
- Top Inhibition % (H727; H727, % of top inhibition): 31.8%
- EC50 (H727; H727, relative EC50, read-out: Re EC50): 8.37 µM
- EC50 (HCT116; HCT116 (K-RAS: G13D), absolute EC50, read-out: Ab EC50): > 30 µM
- Top Inhibition % (HCT116; HCT116, % of top inhibition): 3.0%
- EC50 (KP-4; KP-4 (K-RAS: G12C), absolute EC50, read-out: Ab EC50): > 30 µM
- Top Inhibition % (KP-4; KP-4, % of top inhibition): 47.9%
- EC50 (KP-4; KP-4, relative EC50, read-out: Re EC50): 5.47 µM
- EC50 (LS180; LS180 (K-RAS: G12D), absolute EC50, read-out: Ab EC50): > 30 µM
- Top Inhibition % (LS180; LS180, % of top inhibition): 8.2%
- EC50 (SW620; SW620 (K-RAS: G12V), absolute EC50, read-out: Ab EC50): > 30 µM
- Top Inhibition % (SW620; SW620, % of top inhibition): 0.0%
- EC50 (MiaPaCa-2; MiaPaCa-2 (K-RAS: G12C), absolute EC50, read-out: Ab EC50): > 30 µM
- Top Inhibition % (MiaPaCa-2; MiaPaCa-2, % of top inhibition): 18.6%
- EC50 (HL60; HL60 (N-RAS: Q61L), absolute EC50, read-out: Ab EC50): > 30 µM
- Top Inhibition % (HL60; HL60, % of top inhibition): 14.4%
- EC50 (THP1; THP1 (N-RAS: G12D), absolute EC50, read-out: Ab EC50): > 30 µM
- Top Inhibition % (THP1; THP1, % of top inhibition): 33.6%
- EC50 (THP1; THP1, relative EC50, read-out: Re EC50): 14 µM
- Top Inhibition % (BxPC-3): 37.49%
- Top Inhibition % (Colo205): 42.3%
- Top Inhibition % (H1915): 28.6%
- Top Inhibition % (H838): 27.7%
- Top Inhibition % (HT29): 10.0%

Further lines, with some results ahead:

- Ratio ([…] DMSO IC50/combination IC50) [2, 3]: 0.81
- Ratio ([…] DMSO IC50/combination IC50) [2, 4]: 3.13
- Ratio ([…] DMSO IC50/combination IC50) [2, 5]: 0.68
- Ratio ([…] DMSO IC50/combination IC50) [2, 6]: 5.57
- Ratio ([…] DMSO IC50/combination IC50) [2, 7]: 2.13
- Ratio ([…] DMSO IC50/combination IC50) [2, 8]: 6.03
SMILES: NC1(c2ccc(-c3nc4ccn5c(=O)[nH]nc5c4cc3-c3ccccc3)cc2)CCC1 [MK2206, 8-[4-(1-aminocyclobutyl)phenyl]-9-phenyl-2H-[1,2,4]triazolo[3,4-f][1,6]naphthyridin-3-one]
- effect in combination with the PKC activator compounds in inhibiting the growth of A549 cells [2]: strong synergy
- Combination in A549: K101A (synergism/antagonism) [2]: Synergism (strong)
- Combination in A549: K101E (synergism/antagonism) [2]: Synergism
- Combination in A549: K102 (synergism/antagonism) [2]: Synergism (strong)
- Combination effect, Panc2.13: K101A (Panc2.13): None

- Ratio ([…] DMSO IC50/combination IC50) ([2]; in combination with 0.013 μM K102): 0.96
- Ratio ([…] DMSO IC50/combination IC50) ([2]; in combination with 0.04 μM K102): 1.10
- Ratio ([…] DMSO IC50/combination IC50) ([2]; in combination with 0.33 uM K101A): 1.05
- Ratio ([…] DMSO IC50/combination IC50) ([2]; in combination with 1 uM K101A): 1.10
SMILES: O=C1[C@H](Cc2ccc(O)cc2)N2C(=O)CCN(C(=O)NCc3ccccc3)[C@H]2CN1Cc1cccc2ccccc12 [ICG-001, (6S,9aS)-Hexahydro-6-[(4-hydroxyphenyl)methyl]-8-(1-naphthalenylmethyl)-4,7-dioxo-N-(phenylmethyl)-2H-pyrazino[1,2-a]pyrimidine-1(6H)-carboxamide]
- effect in combination with K101A or K102 in inhibiting the growth of A549 cells ([2]; K101A or K102): did not show synergy
- effect in combination with the PKC activator compounds in inhibiting the growth of A549 cells [2]: insignificant synergism or antagonism
- Combination in A549: K101A (synergism/antagonism) [2]: None
- Combination in A549: K102 (synergism/antagonism) [2]: None
- effect in combination with K101A (Panc2.13): strong synergy
- Combination effect, Panc2.13: K101A (Panc2.13): Synergism
